# Measured values as given in US6984649B1, “Pyridine derivatives” (Bayer Aktiengesellschaft, priority 2000, dated 2006).
# pIC50: −log10 of the molar value. Structures can show the parent of a compound that is named as a salt.
# Target: T1, human IKK-β (Homo sapiens, UniProt O14920)
# T1 construct: A cDNA fragment encoding human IKK-β open reading frame was generated by PCR; His tag (from pcDNA3.1/His C); made in house; host or cells: Sf21 insect cells (baculovirus); substrate made in E. coli
# T1 sequence (O14920 1-756): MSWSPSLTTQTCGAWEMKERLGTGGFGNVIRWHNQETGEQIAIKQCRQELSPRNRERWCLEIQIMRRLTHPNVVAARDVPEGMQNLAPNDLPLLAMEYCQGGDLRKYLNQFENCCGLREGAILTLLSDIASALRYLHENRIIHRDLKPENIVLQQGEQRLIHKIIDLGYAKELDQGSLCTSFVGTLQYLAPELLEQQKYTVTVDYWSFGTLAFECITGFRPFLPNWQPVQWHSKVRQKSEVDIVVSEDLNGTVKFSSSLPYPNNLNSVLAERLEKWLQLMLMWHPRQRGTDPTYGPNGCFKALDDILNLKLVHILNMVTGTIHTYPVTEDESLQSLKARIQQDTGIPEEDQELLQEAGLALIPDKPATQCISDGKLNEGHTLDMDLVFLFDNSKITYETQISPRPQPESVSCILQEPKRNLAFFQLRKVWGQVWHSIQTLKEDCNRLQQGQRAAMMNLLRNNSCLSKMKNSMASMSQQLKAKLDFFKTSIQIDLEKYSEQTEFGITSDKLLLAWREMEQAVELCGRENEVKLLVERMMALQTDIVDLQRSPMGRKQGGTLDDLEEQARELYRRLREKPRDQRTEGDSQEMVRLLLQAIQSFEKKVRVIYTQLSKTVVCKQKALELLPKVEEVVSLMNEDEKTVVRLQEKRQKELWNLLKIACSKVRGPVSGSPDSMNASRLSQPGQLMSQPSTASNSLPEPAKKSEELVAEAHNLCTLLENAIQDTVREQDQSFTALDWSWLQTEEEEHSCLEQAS
# Assay: IKK-β kinase inhibitory assay
# Format: biochemical
# Settings: compounds as yielded by solid phase synthesis, purity about 40 to 90%, read-out: In vitro activity grade (In vitro IC50)
# How it was run: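 His-tagged human IKK-β from baculovirus-infected Sf21 cells (0.6 μg/ml final) phosphorylates biotinylated GST-IκBα(1-54) (0.2 μM) in Tris-HCl pH 7.6 buffer with MgCl2. ATP with [γ-33P]ATP added, then 2 h at room temperature. Biotinylated substrate captured on streptavidin plates; bound radioactivity counted by scintillation.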
row,SMILES,pIC50
1,"Nc1nc(-c2ccccc2O)cc(C2=CCCNC2)c1CO [Example 11-4, 2-[6′-amino-5′-(hydroxymethyl)-1,2,5,6-tetrahydro-3,4′-bipyridin-2′-yl]phenol hydrochloride]",> 6.30
2,"N#Cc1c(C2CCCNC2)cc(-c2c(N)cccc2O)nc1N (stereo not shown) [Example 1-10, 2-amino-6-(2-amino-6-hydroxyphenyl)-4-(3-piperidinyl)nicotinonitrile hydrochloride]",5.00 to 5.70
3,"N#Cc1c(C2CCCNC2)cc(-c2ccccc2O)nc1N (stereo not shown) [Example 1-1, 2-amino-6-(2-hydroxyphenyl)-4-(3-piperidinyl)-nicotinonitrile hydrochloride]",> 6.30
4,"N#Cc1c(C2CCCNC2)cc(-c2ncccc2O)nc1N (stereo not shown) [Example 1-6, 6-amino-3′-hydroxy-4-(3-piperidinyl)-2,2′-bipyridine-5-carbonitrile hydrochloride]",> 6.30
5,"N#Cc1c(C2CCCNC2)cc(-c2c(O)cccc2NCc2ccccc2)nc1N (stereo not shown) [Example 1-11, 2-amino-6-[2-(benzylamino)-6-hydroxyphenyl]-4-(3-piperidinyl)nicotinonitrile hydrochloride]",5.70 to 6.30
6,"N#Cc1c(C2CCCN(Cc3ccccc3)C2)cc(-c2c(O)cccc2OCC2CC2)nc1N (stereo not shown) [Example 3-2, 2-amino-4-(1-benzyl-3-piperidinyl)-6-[2-(cyclopropylmethoxy)-6-hydroxyphenyl]nicotinonitrile]",5.00 to 5.70
7,"Cn1c(=O)[nH]c2nc(-c3ccccc3O)cc(C3CCCNC3)c2c1=O (stereo not shown) [Example 10-1, 7-(2-hydroxy-phenyl)-3-methyl-5-piperidin-3-yl-1H-pyrido[2,3-d]pyrimidine-2,4-dione hydrochloride]",> 6.30

# Next, values leading:
row,pIC50,SMILES
1,> 6.30,"Nc1nc(-c2c(O)cccc2OCC2CC2)cc(C2CCNCC2)c1Cn1ccnc1 [Example 21-2, 2-[6-amino-5-(1H-imidazol-1-ylmethyl)-4-(4-piperidinyl)-2-pyridinyl]-3-(cyclopropylmethoxy)phenol hydrochloride]"
2,> 6.30,"NCCNc1cc(-c2c(O)cccc2OCC2CC2)nc2c1COC(=O)N2 [Example 35-1, 5-[(2-aminoethyl)amino]-7-[2-(cyclopropylmethoxy)-6-hydroxyphenyl]-1,4-dihydro-2H-pyrido[2,3-d][1,3]oxazin-2-one hydrochloride]"
3,> 6.30,"Nc1nc(-c2c(O)cccc2OCC2CC2)cc(C2CCNCC2)c1COc1ccccc1 [Example 21-3, 2-[6-amino-5-(phenoxymethyl)-4-(4-piperidinyl)-2-pyridinyl]-3-(cyclopropylmethoxy)phenol hydrochloride]"
4,> 6.30,"Nc1nc(-c2c(O)cccc2OCC2CC2)cc(C2CCCNC2)c1CO (stereo not shown) [Example 12-1, 2-[6-amino-5-(hydroxymethyl)-4-(3-piperidinyl)-2-pyridinyl]-3-(cyclopropylmethoxy)phenol hydrochloride]"
5,> 6.30,"Oc1cccc(OCC2CC2)c1-c1cc(C2CCCNC2)c2c(n1)NCCC2 (stereo not shown) [Example 28-01, 3-(cyclopropylmethoxy)-2-[4-(3-piperidinyl)-5,6,7,8-tetrahydro-1,8-naphthyridin-2-yl]phenol]"
6,5.70 to 6.30,"N#Cc1c(N2CCCC(N)C2)cc(-c2ccccc2O)nc1N (stereo not shown) [Example 34-3, 2-amino-4-(3-amino-1-piperidinyl)-6-(2-hydroxyphenyl)nicotinonitrile hydrochloride]"
7,5.70 to 6.30,"Oc1ccccc1-c1cc(C2CCCNC2)c2cn[nH]c2n1 (stereo not shown) [Example 16-1, 2-(4-Piperidin-3-yl-1H-pyrazolo[3,4-b]pyridin-6-yl)-phenol hydrochloride]"
8,> 6.30,"Nc1nc(-c2ccccc2O)cc(C2CCCNC2)c1C(O)c1ccccc1 (stereo not shown) [Example 15-2, 2-[6-amino-5-[hydroxy(phenyl)methyl]-4-(3-piperidinyl)-2-pyridinyl]phenol hydrochloride]"
9,> 6.30,"O=C1NCc2c(C3CCCNC3)cc(-c3c(O)cccc3OCC3CC3)nc2N1 (stereo not shown) [Example 22-2, 7-[2-(cyclopropylmethoxy)-6-hydroxyphenyl]-5-(3-piperidinyl)-3,4-dihydro-1H-pyrido[2,3-d]-pyrimidin-2-one hydrochloride]"
